Assay results from patent US11000033B2, “Ketone or oxime compound, and herbicide” (NISSAN CHEMICAL CORPORATION, priority 2014, dated 2021).

Tests used:
Type in all cases: in vivo
[1] = system: Avena fatua; test: Test Example 4: herbicidal effect by soil treatment (symbol I); conditions: application herbicide amount 320 g/ha
Outline: (§1)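 Seeds were sown in sterilized diluvial soil, covered with about 1.5 cm of soil, and the soil surface was sprayed with a water-diluted emulsion of the compound at a predetermined rate. Plants grew in a greenhouse at 25° C. to 30° C.; effects were scored visually 3 weeks after application.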

[2] = system: Digitaria ciliaris; test: Test Example 4: herbicidal effect by soil treatment (symbol F); conditions: application herbicide amount 320 g/ha
Outline: as §1

[3] = system: wheat; test: Test Example 5: effect on crop by foliage application, plastic box (symbol e); conditions: 320 g/ha, 3 weeks after application
Outline: (§2)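 In a plastic box 7 cm deep filled with sterilized diluvial soil, seeds of crops and weeds such as Digitaria ciliaris, Avena fatua and Amaranthus retroflexus are sown in spots and covered with about 1.5 cm of soil before greenhouse growth at 25–30° C.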

[4] = system: Lolium multiflorum Lam.; test: Test Example 4: herbicidal effect by soil treatment (symbol K); conditions: application herbicide amount 320 g/ha
Outline: as §1

[5] = system: Echinochloa crus-galli var. crus-galli; test: Test Example 4: herbicidal effect by soil treatment (symbol H); conditions: application herbicide amount 320 g/ha
Outline: as §1

[6] = system: directly sowed rice plant; test: Test Example 3: effect on crop by foliage application, Wagner pot (symbol b); conditions: application herbicide amount 320 g/ha, Table 24
Outline: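 Greenhouse culture at 25–30 °C of seeded rice, Cyperus difformis, Leptochloa chinensis and Echinochloa crus-galli var. crus-galli, in alluvial soil held under 0.1–0.5 cm of water in a Wagner pot.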

[7] = system: Chenopodium album; test: Test Example 5: herbicidal effect by foliage application, plastic box (symbol O); conditions: 320 g/ha, 3 weeks after application
Outline: (§3)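 After sowing into sterilized diluvial soil and growing two weeks under glass at 25° C. to 30° C., seedlings receive a uniform foliar spray of diluted emulsion. Damage is judged visually three weeks on.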

[8] = system: rapeseed; test: Test Example 5: effect on crop by foliage application, plastic box (symbol g); conditions: 320 g/ha, 3 weeks after application
Outline: as §2

[9] = system: Scirpus juncoides; test: Test Example 1: herbicidal activity, application before weed generation in submerged conditions (symbol B); conditions: application herbicide amount 320 g/ha
Outline: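 Scores run 0 to 5 by herbicidal ratio, with 5 meaning 90% or more and 0 meaning 5% or lower, read 3 weeks after treatment. Compound was applied as a diluted emulsion to the water surface of submerged alluvial-soil pots on the day weed seeds were sown.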

[10] = system: Avena fatua; test: Test Example 5: herbicidal effect by foliage application, plastic box (symbol I); conditions: 320 g/ha, 3 weeks after application
Outline: as §3

[11] = system: corn; test: Test Example 5: effect on crop by foliage application, plastic box (symbol c); conditions: 320 g/ha, 3 weeks after application
Outline: as §2

[12] = system: Chenopodium album; test: Test Example 4: herbicidal effect by soil treatment (symbol O); conditions: application herbicide amount 320 g/ha
Outline: as §1

[13] = system: Digitaria ciliaris; test: Test Example 5: herbicidal effect by foliage application, plastic box (symbol F); conditions: 320 g/ha, 3 weeks after application
Outline: as §3

[14] = system: Stellaria media; test: Test Example 5: herbicidal effect by foliage application, plastic box (symbol P); conditions: 320 g/ha, 3 weeks after application
Outline: as §3

[15] = system: Veronica persica; test: Test Example 5: herbicidal effect by foliage application, plastic box (symbol R); conditions: 320 g/ha, 3 weeks after application
Outline: as §3

[16] = system: rice; test: Test Example 4: effect on crop by soil treatment (symbol b); conditions: application herbicide amount 320 g/ha
Outline: (§4)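 Crop seeds, among them rice, wheat, beet and rapeseed, were sown in sterilized diluvial soil and covered with about 1.5 cm of soil. Boxes were kept in a greenhouse at 25° C. to 30° C. for plant growth.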

[17] = system: rapeseed; test: Test Example 4: effect on crop by soil treatment (symbol g); conditions: application herbicide amount 320 g/ha
Outline: as §4

| Compound | Herbicidal effect grade, I: Avena fatua [1] | Herbicidal effect grade, F: Digitaria ciliaris [2] | e: wheat, effect on crop grade [3] | Herbicidal effect grade, K: Lolium multiflorum Lam. [4] | Herbicidal effect grade, H: Echinochloa crus-galli var. crus-galli [5] | b (directly sowed rice plant) effect on crop grade [6] | O: Chenopodium album, herbicidal effect grade [7] | g: rapeseed, effect on crop grade [8] | B (Scirpus juncoides) herbicidal effect grade [9] | I: Avena fatua, herbicidal effect grade [10] | c: corn, effect on crop grade [11] | Herbicidal effect grade, O: Chenopodium album [12] | F: Digitaria ciliaris, herbicidal effect grade [13] | P: Stellaria media, herbicidal effect grade [14] | R: Veronica persica, herbicidal effect grade [15] | Effect on crop grade, b: directly sowed rice plant [16] | Effect on crop grade, g: rapeseed [17] |
| --- | --- | --- | --- | --- | --- | --- | --- | --- | --- | --- | --- | --- | --- | --- | --- | --- | --- |
| Cc1cc(Br)cc(C)c1C1=C(O)CC(CC(=O)C(C)C)C1=O (racemic) [10-003] | 0 (Herbicidal ratio of 5% or lower (almost no effect)) | 0 (Herbicidal ratio of 5% or lower (almost no effect)) | 0 (Herbicidal ratio of 5% or lower (almost no effect)) | 4 (Herbicidal ratio of 70% or higher and lower than 90%) | 5 (Herbicidal ratio of 90% or more (almost completely withered)) | 5 (Herbicidal ratio of 90% or more (almost completely withered)) | 0 (Herbicidal ratio of 5% or lower (almost no effect)) | 0 (Herbicidal ratio of 5% or lower (almost no effect)) | 0 (Herbicidal ratio of 5% or lower (almost no effect)) | 3 (Herbicidal ratio of 40% or higher and lower than 70%) | 2 (Herbicidal ratio of 20% or higher and lower than 40%) | 0 (Herbicidal ratio of 5% or lower (almost no effect)) | 3 (Herbicidal ratio of 40% or higher and lower than 70%) | 0 (Herbicidal ratio of 5% or lower (almost no effect)) | 0 (Herbicidal ratio of 5% or lower (almost no effect)) | 4 (Herbicidal ratio of 70% or higher and lower than 90%) | 0 (Herbicidal ratio of 5% or lower (almost no effect)) |
| COC(=O)C(C(=O)C1CC1)C1CC(O)=C(c2c(C)cc(Br)cc2C)C1=O (mixture of isomers) [10-002] | 3 (Herbicidal ratio of 40% or higher and lower than 70%) | 4 (Herbicidal ratio of 70% or higher and lower than 90%) | 0 (Herbicidal ratio of 5% or lower (almost no effect)) | 4 (Herbicidal ratio of 70% or higher and lower than 90%) | 4 (Herbicidal ratio of 70% or higher and lower than 90%) | 5 (Herbicidal ratio of 90% or more (almost completely withered)) | 0 (Herbicidal ratio of 5% or lower (almost no effect)) | 0 (Herbicidal ratio of 5% or lower (almost no effect)) | 0 (Herbicidal ratio of 5% or lower (almost no effect)) | 5 (Herbicidal ratio of 90% or more (almost completely withered)) | 5 (Herbicidal ratio of 90% or more (almost completely withered)) | 0 (Herbicidal ratio of 5% or lower (almost no effect)) | 5 (Herbicidal ratio of 90% or more (almost completely withered)) | 0 (Herbicidal ratio of 5% or lower (almost no effect)) | 0 (Herbicidal ratio of 5% or lower (almost no effect)) | 4 (Herbicidal ratio of 70% or higher and lower than 90%) | 0 (Herbicidal ratio of 5% or lower (almost no effect)) |
